Each molecule was assayed against T1, full-length human PKCι (Homo sapiens, UniProt P41743) (assay: PKCι IC50 IMAP fluorescence polarisation assay, full-length enzyme, 150 μM ATP). Conditions: read-out: IC50 in IMAP assay against full length PKCi at 150 μM ATP.
T1 construct: Recombinant, full-length human PKCι expressed in Sf21 insect cells is also commercially available; purchased EMD Millipore; host or cells: Sf21 insect cells (baculovirus)
T1 sequence (P41743 1-596): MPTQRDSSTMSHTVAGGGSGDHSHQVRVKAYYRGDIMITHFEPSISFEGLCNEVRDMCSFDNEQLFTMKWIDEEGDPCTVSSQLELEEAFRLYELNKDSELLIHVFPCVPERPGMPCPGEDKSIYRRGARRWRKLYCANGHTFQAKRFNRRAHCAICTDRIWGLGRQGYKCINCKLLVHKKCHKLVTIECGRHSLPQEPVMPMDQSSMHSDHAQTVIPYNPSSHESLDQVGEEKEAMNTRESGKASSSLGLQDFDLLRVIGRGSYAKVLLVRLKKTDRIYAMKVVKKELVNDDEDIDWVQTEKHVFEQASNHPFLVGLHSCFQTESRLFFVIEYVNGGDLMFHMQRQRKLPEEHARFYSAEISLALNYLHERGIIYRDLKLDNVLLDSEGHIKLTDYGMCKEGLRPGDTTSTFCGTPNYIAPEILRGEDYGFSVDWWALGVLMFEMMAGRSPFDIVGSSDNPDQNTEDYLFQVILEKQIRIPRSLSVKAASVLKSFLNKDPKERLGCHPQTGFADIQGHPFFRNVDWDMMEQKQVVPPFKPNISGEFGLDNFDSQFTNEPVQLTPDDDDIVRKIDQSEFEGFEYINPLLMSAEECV
Format: biochemical
Outline: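 IMAP fluorescence polarisation kinase assay: 15 pM baculovirus-expressed human PKCiota with 100 nM FAM-pseudosubstrate peptide and 150 μM ATP, 1 h at 25 °C. IMAP detection reagent then 2 h at 25 °C before FP measurement. Inhibition referenced to no-compound and no-enzyme controls for IC50 fitting.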

Compound	IC50 [µM]
CSc1cc2c(-c3nc(N4CCNCC4)c4c(C5CCC5)cncc4n3)ccnc2[nH]1 [Example 17, 5-Cyclobutyl-2-(2-methylsulfanyl-1H-pyrrolo[2,3-b]pyridin-4-yl)-4-piperazin-1-yl pyrido[3,4-d] pyrimidine]	< 0.1
Clc1ccc(-c2cc3c(-c4nc(N5CCNCC5)c5c(C6CC6)cncc5n4)ccnc3[nH]2)c(Cl)c1 [Example 18, 5-Cyclopropyl-2-[2-(2,4-dichloro-phenyl)-1H-pyrrolo[2,3-b]pyridin-4-yl]-4-piperazin-1-yl-pyrido[3,4-d] pyrimidine]	< 0.1
FC(F)(F)c1cc2c(-c3nc(N4CC[C@@H]5CNC[C@@H]54)c4c(C5CC5)cncc4n3)ccnc2[nH]1 [Example 21, 5-Cyclopropyl-4-(3aR,6aR)-hexahydro-pyrrolo[3,4-b]pyrrol-1-yl-2-(2-trifluoromethyl-1H-pyrrolo[2,3-b]pyridin-4-yl)-pyrido[3,4-d]pyrimidine]	< 0.1
c1ccc2c(c1)[nH]c1nccc(-c3nc(NC4CCCNCC4)c4c(C5CCC5)cncc4n3)c12 (stereo not drawn) [Example 22, Azepan-4-yl-[5-cyclobutyl-2-(9H-pyrido[2,3-b]indol-4-yl)-pyrido[3,4-d]pyrimidin-4-yl]-amine]	< 0.1
COc1ccccc1-c1cc2c(-c3nc(N(C)C4CCNCC4(C)C)c4c(C5CC5)cncc4n3)ccnc2[nH]1 (stereo not drawn) [Example 23, {5-Cyclopropyl-2-[2-(2-methoxy-phenyl)-1H-pyrrolo[2,3-b]pyridin-4-yl]-pyrido[3,4-d]pyrimidin-4-yl}-(3,3-dimethyl-piperidin-4-yl)-methyl-amine]	< 0.1

Other lines, results leading:

IC50 [µM]	Compound
< 0.1	N[C@H]1C[C@H](Nc2nc(-c3ccnc4[nH]c5ccccc5c34)nc3cncc(C4CCC4)c23)C1 [Example 11, trans-N-[5-Cyclobutyl-2-(9H-pyrido[2,3-b]indol-4-yl)-pyrido[3,4-d]pyrimidin-4-yl]-cyclobutane-1,3-diamine]
< 0.1	CC1(c2cc3c(-c4nc(N[C@H]5CC[C@H](N)CC5)c5c(C6CC6)cncc5n4)ccnc3[nH]2)CC1(F)F (stereo partly drawn) [Example 12, trans-N-{5-Cyclopropyl-2-[2-(2,2 difluoro-1-methyl-cyclopropyl)-1H-pyrrolo[2,3-b]pyridin-4-yl]-pyrido[3,4-d]pyrimidin-4-yl}-cyclohexane-1,4-diamine]
< 0.1	OC1(c2cc3c(-c4nc(N5CCNCC5)c5c(C6CCC6)cncc5n4)ccnc3[nH]2)CCSC1 (stereo not drawn) [Example 13, 3-[4-(5-Cyclobutyl-4-piperazin-1-yl-pyrido[3,4-d]pyrimidin-2-yl)-1H-pyrrolo[2,3-b]pyridin-2-yl]-tetrahydro-thiophen-3-ol]
< 0.1	c1ccc(Sc2cc3c(-c4nc(N5CCNCC5)c5c(C6CC6)cncc5n4)ccnc3[nH]2)cc1 [Example 14, 5-Cyclopropyl-2-(2-phenylsulfanyl-1H-pyrrolo[2,3-b]pyridin-4-yl)-4-piperdzin-1-yl-pyrido[3,4-d] pyrimidine]
< 0.1	CN(c1nc(-c2ccnc3[nH]c(Sc4ccccc4)cc23)nc2cncc(C3CC3)c12)C1CCNCC1 [Example 15, [5-Cyclopropyl-2-(2-phenylsulfanyl-1H-pyrrolo[2,3-b]pyridin-4-yl)-pyrido[3,4-d]pyrimidin-4-yl]-methyl-piperidin-4-yl amine]
< 0.1	CSc1cc2c(-c3nc(N4CCNCC4)c4c(C5CC5)cncc4n3)ccnc2[nH]1 [Example 16, 5-Cyclopropyl-2-(2-methylsulfanyl-1H-pyrrolo[2,3-b]pyridin-4-yl)-4-piperazin-1-yl pyrido[3,4-d]pyrimidine]
< 0.1	FC(F)(F)c1cc2c(-c3nc(N4CC[C@H]5CNC[C@H]54)c4c(C5CC5)cncc4n3)ccnc2[nH]1 [Example 20, 5-Cyclopropyl-4-(3aS,6aS)-hexahydro-pyrrolo[3,4-b]pyrrol-1-yl-2-(2-trifluoromethyl-1H-pyrrolo[2,3-b]pyridin-4-yl)-pyrido[3,4-d]pyrimidine]

— patent US10414763B2 (CANCER RESEARCH TECHNOLOGY LIMITED, priority 2014, dated 2019)
